Data as given in patent US10117871B2, “3-hydroxypyrimidine-2,4-dione-5-carboxamides as potent inhibitors of HIV” (Regents of the University of Minnesota, priority 2015, dated 2018).
Read-outs that look alike come from different tables or passages of the source.

Legend:
[1] = tested on: HIV-1 clone 8070-1 (G140S/Y143H/Q148H); type: cell-based; details: EC50(mutant)/EC50(WT)
[2] = tested on: HIV-1 clone 1556-1 (Y143C); type: cell-based; details: EC50(mutant)/EC50(WT)
[3] = tested on: HIV-1 clone 4736-2 (N155H); type: cell-based; details: EC50(mutant)/EC50(WT)
HIV-1IIIB = test: HIV-1 cytoprotection (CPE reduction) antiviral assay; type: cell-based; details: for inhibition at 10 µM: read-out: CPE reduction %; for antiviral activity, in words: single concentration 10 μM, CPE assay
Procedure: (§1) The antiviral activity of newly synthesized analogues of chemotype 7 was evaluated against HIV-1IIIB in CEM-SS cells using an assay based on viral cytopathic effect (CPE). In this assay, the reduction of CPE was used to indicate the antiviral activity of a compound.
Briefly virus and cells were mixed in the presence of test compound and incubated for 6 days. […] Each assay plate contained cell control wells (cells only), virus control wells (cells plus virus), compound toxicity control wells (cells plus compound only), compound colorimetric control wells (compound only) as well as experimental wells (compound plus cells plus virus). Cytoprotection and compound cytotoxicity were assessed by MTS (CellTiter® 96 Reagent, Promega, Madison Wis.) and the EC50 (concentration inhibiting virus replication by 50%), CC50 (concentration resulting in 50% cell death) and a calculated TI (therapeutic index CC50/EC50) were provided. Each assay included AZT as a positive control.

[4] = tested on: HIV-1 clone 8070-2 (G140S/Q148H); type: cell-based; details: EC50(mutant)/EC50(WT)
CEM-SS cells = test: Compound cytotoxicity (MTS) in the HIV cytoprotection assay; type: cell-based; details: for CC50: Concentration resulting in 50% cell death; for Cell viability %: 10 μM, CEM-SS cells
Procedure: as §1
(§2) Briefly virus and cells were mixed in the presence of test compound and incubated for 6 days. […] Each assay plate contained cell control wells (cells only), virus control wells (cells plus virus), compound toxicity control wells (cells plus compound only), compound colorimetric control wells (compound only) as well as experimental wells (compound plus cells plus virus). […] Each assay included AZT as a positive control.

[5] = Aqueous stability in DPBS; type: physicochemical; details: DPBS (37° C.) over a 24 h period
Procedure: To assess drug-like properties of chemotype 7, selected analogues were tested in various in vitro ADME studies (Table 5). Aqueous stability and solubility were evaluated in Dulbecco's Phosphate-Buffered Saline (DPBS). […] Assessment of plasma and microsomal stability as well as plasma protein binding was done in two species, human and mouse. […] Microsomal stability of the compounds were evaluated in liver microsomes using either NADPH (phase I) or UDPGA (phase II) as cofactor.

HIV-1 integrase = target: T1, HIV-1 integrase (Human immunodeficiency virus type 1 group M subtype B, UniProt P04585); test: HIV-1 integrase strand transfer (INST) assay; type: biochemical
T1 construct: HIV integrase was expressed and purified as previously reported; made in house; host or cells: Escherichia coli
Procedure: HIV integrase was expressed and purified as previously reported.^43 Inhibition assays were performed using a modified protocol of a reported method.^43 Briefly, 2.1 μL of compound suspended in DMSO was placed in duplicate into a Black 96 well non-binding plate (coming 3991). Compounds were plated in duplicate to a final concentration of 0.13-100 μM. To each well of the plate 186.9 μL of reaction mixture without DNA substrate was added (10 mM HEPES pH 7.5, 10% glycerol w/v, 10 mM MnCl2, 1 mM DTT, 1 μM integrase). The enzyme was incubated with inhibitor for 10 min at 25° C. after which the reaction was initiated by the addition of 21 μL of 500 nM oligo (5′ biotin […] annealed with […] 3′ Cy5). Reactions were incubated at 37° C. for 30 min and then quenched by the addition of 5.2 μL 500 mM EDTA. Each reaction was moved (200 μL) to a MultiScreen HTS PCR plate (Millipore MSSLBPC10) containing 20 μL streptavidin agarose beads (Life Technologies S951) and incubated with shaking for 30 min. A vacuum manifold was used to remove the reaction mixture and the beads were similarly washed 3 times with wash buffer (0.05% SDS, 1 mM EDTA in PBS). The plates were further washed 3 times with 200 μL 50 mM NaOH to denature DNA not covalently linked to the biotin modification. For each denaturation step the plate was incubated with shaking at 25° C. for 5 min and the NaOH was removed by centrifugation at 1000 g for 1 min. The reaction products were eluted from the beads by the addition of 150 μL formamide. The plate was incubated at 25° C. for 10 min and read directly at 635/675 in a SpectraMax i3 plate reader (Molecular Devices). Expression and purification of the recombinant IN in Escherichia coli were performed as previously reported^39, 44 with addition of 10% glycerol to all buffers. Preparation of oligonucleotide substrates has been described.^45 Integrase reactions were performed in 10 μL with 400 nM of recombinant IN, 20 nM of 5′-end [^32P]-labeled oligonucleotide substrate and inhibitors at various concentrations. Solutions of 10% DMSO without inhibitors were used as controls. Reactions were incubated at 37° C. (60 minutes) in buffer containing 50 mM MOPS, pH 7.2, 7.5 mM MgCl2, and 14.3 mM 2-mercaptoethanol. Reactions were stopped by addition of 10 μL of loading dye (10 mM EDTA, 98% deionized formamide, 0.025% xylene cyanol and 0.025% bromophenol blue). Reactions were then subjected to electrophoresis in 20% polyacrylamide-7 M urea gels. Gels were dried and reaction products were visualized and quantitated with a Typhoon 8600 (GE Healthcare, Little Chalfont, Buckinghamshire, UK). Densitometric analyses were performed using ImageQuant from Molecular Dynamics Inc. The concentrations at which enzyme activity was reduced by 50% (IC50) were determined using “Prism” software (GraphPad Software, San Diego, Calif.) for nonlinear regression to fit dose-response data to logistic curve models.

[6] = Compound cytotoxicity (MTS) in the HIV cytoprotection assay; type: cell-based; details: human
Procedure: as §1, §2

[7] = Human immunodeficiency virus 1, 10 μM, HIV-1IIIB in CEM-SS cells
[8] = Human immunodeficiency virus 1, CEM-SS
[9] = Human immunodeficiency virus 1, summary of Table 2, read-out: EC50

Row | Structure (SMILES) | CC50 (CEM-SS cells) | inhibition at 10 µM (HIV-1IIIB; [7]) | Cell viability % (CEM-SS cells) | IC50 (HIV-1 integrase; read-out: INST IC50) | other results
1 | Cc1cn([C@H]2C[C@H](N=[N+]=[N-])[C@@H](CO)O2)c(=O)[nH]c1=O [AZT, reference compound] | > 10 µM |  |  |  | Fold-resistance [1]: 0.9; Fold-resistance [2]: 1.4; Fold-resistance [3]: 0.7; EC50 (HIV-1IIIB; Concentration inhibiting virus replication by 50%, dose response, read-out: EC50): 80 nM; Fold-resistance [4]: 0.5
2 | CCNc1[nH]c(=O)n(O)c(=O)c1C(=O)NCc1ccc(Cl)c(F)c1 [Compound 7-xxii, N-(4-Chloro-3-fluorobenzyl)-1-(hydroxy)-4-(ethylamino)-1,2,3,6-tetrahydro-2,6-dioxopyrimidine-5-carboxamide] | 19 µM | 100% | 100% | 120 ± 21 nM | EC50 (HIV-1IIIB; Human immunodeficiency virus 1): 190 nM; remaining in DPBS [5]: 86%
3 | CCNc1[nH]c(=O)n(O)c(=O)c1C(=O)NCc1ccc(F)cc1F [Compound 7-xviii, N-(2,4-Difluorobenzyl)-1-(hydroxy)-4-(ethylamino)-1,2,3,6-tetrahydro-2,6-dioxopyrimidine-5-carboxamide] |  | 92% | 87% | 48 ± 7 nM | 
4 | CC(C)(C)Nc1[nH]c(=O)n(O)c(=O)c1C(=O)NCc1ccccc1 [Compound 7-x, 4-(tert-Butylamino)-N-benzyl-1-(hydroxy)-1,2,3,6-tetrahydro-2,6-dioxopyrimidine-5-carboxamide] |  | 98% | 91% | 81 ± 15 nM | 
5 | CCNc1[nH]c(=O)n(O)c(=O)c1C(=O)NCc1cccc(Cl)c1F [Compound 7-xxiii, N-(3-Chloro-2-fluorobenzyl)-1-(hydroxy)-4-(ethylamino)-1,2,3,6-tetrahydro-2,6-dioxopyrimidine-5-carboxamide] | 18 µM | 100% | 100% | 21 ± 2 nM | Fold-resistance [1]: 6.3; Fold-resistance [2]: 0.4; Fold-resistance [3]: 2.4; EC50 (HIV-1IIIB; Human immunodeficiency virus 1): 15 nM; Fold-resistance [4]: 13
6 | CC(C)Nc1[nH]c(=O)n(O)c(=O)c1C(=O)NCc1ccccc1 [Compound 7-viii, N-Benzyl-1-(hydroxy)-1,2,3,6-tetrahydro-4-(isopropylamino)-2,6-dioxopyrimidine-5-carboxamide] |  | 0% | 17% | 150 ± 34 nM | antiviral activity, in words (HIV-1IIIB): inactive; cytotoxicity, in words (CEM-SS cells; single concentration 10 μM): cytotoxic
7 | O=C(NCc1cccc(F)c1)c1c(Nc2ccc(-c3ccccc3)cc2)[nH]c(=O)n(O)c1=O [Compound 7-iii, N-(3-Fluorobenzyl)-1-(hydroxy)-1,2,3,6-tetrahydro-2,6-dioxo-4-(biphenylamino)pyrimidine-5-carboxamide] |  | 0% | 8.7% | > 100000 nM | 
8 | CNc1[nH]c(=O)n(O)c(=O)c1C(=O)NCc1ccc(F)cc1 [Compound 7-xiii, N-(4-Fluorobenzyl)-1-(hydroxy)-1,2,3,6-tetrahydro-4-(methylamino)-2,6-dioxopyrimidine-5-carboxamide] |  | 100% | 89% | 110 ± 21 nM | 
9 | CCNc1[nH]c(=O)n(O)c(=O)c1C(=O)NCc1cc(F)ccc1F [Compound 7-xvii, N-(2,5-Difluorobenzyl)-1-(hydroxy)-4-(ethylamino)-1,2,3,6-tetrahydro-2,6-dioxopyrimidine-5-carboxamide] |  |  | 92% | 68 ± 11 nM | inhibition at 10 µM (HIV-1IIIB; [8]): 100%; EC50 (HIV-1IIIB; Human immunodeficiency virus 1, Concentration inhibiting virus replication by 50%, dose response, read-out: EC50): 32 nM; EC50 (HIV-1IIIB; [9]): 15 to 61 nM; CC50 at 6 days [6]: 47 µM; IC50 (HIV-1 integrase; read-out: IC50 (ST)): 21 to 77 nM
10 | CCNc1[nH]c(=O)n(O)c(=O)c1C(=O)NCc1ccccc1 [Compound 7-vi, N-Benzyl-1-(hydroxy)-4-(ethylamino)-1,2,3,6-tetrahydro-2,6-dioxopyrimidine-5-carboxamide] | 23 µM |  | 100% | 33 ± 4 nM | EC50 (HIV-1IIIB; Human immunodeficiency virus 1): 61 nM; inhibition at 10 µM (HIV-1IIIB; [8]): 100%; EC50 (HIV-1IIIB; [9]): 15 to 61 nM; IC50 (HIV-1 integrase; read-out: IC50 (ST)): 21 to 77 nM
11 | O=C(NCc1ccccc1)c1c(NC2CC2)[nH]c(=O)n(O)c1=O [Compound 7-ix, N-Benzyl-1-(hydroxy)-4-(cyclopropylamino)-1,2,3,6-tetrahydro-2,6-dioxopyrimidine-5-carboxamide] |  | 98% | 90% | 209 ± 77 nM | 
12 | CCNc1[nH]c(=O)n(O)c(=O)c1C(=O)NCCCl [Compound 7-xxvii, 1-(Hydroxy)-N-(2-chloroethyl)-4-(ethylamino)-1,2,3,6-tetrahydro-2,6-dioxopyrimidine-5-carboxamide] |  |  | 100% |  | inhibition at 10 µM (HIV-1IIIB; [8]): 5.1%; antiviral activity, in words (HIV-1IIIB): completely abrogated antiviral activity; inhibition of ST in the ST assay, in words (HIV-1 integrase): none
